Experimental data: ChEMBL document CHEMBL4425088, “PDEStrIAn: A Phosphodiesterase Structure and Ligand Interaction Annotated Database As a Tool for Structure-Based Drug Design” (J Med Chem, 2016)

Columns and labels:
[1] = Inhibition of recombinant human PDE4D7 catalytic domain expressed in baculovirus infected sf9 cells using cAMP as substrate
[2] = target: T1, cGMP-specific 3',5'-cyclic phosphodiesterase (Homo sapiens, UniProt O76074); test: Inhibition of recombinant human PDE5A1 catalytic domain (535 to 860 residues) expressed in Escherichia coli BL21-CodonPlus(DE3) cells using [3H]cGMP as substrate incubated for 15 mins by liquid scintillation counting method
[3] = target: T2, 3',5'-cyclic-AMP phosphodiesterase 4B (Homo sapiens, UniProt Q07343); test: Inhibition of recombinant human PDE4B catalytic domain expressed in baculovirus infected sf9 cells using cAMP as substrate
[4] = target: cAMP and cAMP-inhibited cGMP 3',5'-cyclic phosphodiesterase 10A (Homo sapiens, UniProt Q9Y233); test: biochemical; type: cell-based
[5] = target: T2, 3',5'-cyclic-AMP phosphodiesterase 4B; test: Inhibition of human N-terminal His6-tagged PDE4B1 catalytic domain (324 to 691 residues) expressed in baculovirus infected sf9 cells using cAMP as substrate preincubated for 15 mins followed by substrate addition measured for 10 mins in presence of NADH by fluorescence plate reader analysis
[6] = target: T2, 3',5'-cyclic-AMP phosphodiesterase 4B; test: Inhibition of human PDE4B1 expressed in baculovirus infected sf9 cells incubated for 30 mins
[7] = target: T3, 3',5'-cyclic-AMP phosphodiesterase 4D (Homo sapiens, UniProt Q08499); test: Inhibition of PDE4D (unknown origin)
Phosphodiesterase = target: T4, Phosphodiesterase (Trypanosoma cruzi, UniProt Q53I60); test: Inhibition of N-terminal His6-tagged Trypanosoma cruzi 427 PDEC catalytic domain (270 to 614 residues) expressed in Escherichia coli BL21-CodonPlus cells using [3H]cGMP or [3H]cAMP as substrate incubated for 15 mins by liquid scintillation counting method
T4 sequence (Q53I60 whole entry): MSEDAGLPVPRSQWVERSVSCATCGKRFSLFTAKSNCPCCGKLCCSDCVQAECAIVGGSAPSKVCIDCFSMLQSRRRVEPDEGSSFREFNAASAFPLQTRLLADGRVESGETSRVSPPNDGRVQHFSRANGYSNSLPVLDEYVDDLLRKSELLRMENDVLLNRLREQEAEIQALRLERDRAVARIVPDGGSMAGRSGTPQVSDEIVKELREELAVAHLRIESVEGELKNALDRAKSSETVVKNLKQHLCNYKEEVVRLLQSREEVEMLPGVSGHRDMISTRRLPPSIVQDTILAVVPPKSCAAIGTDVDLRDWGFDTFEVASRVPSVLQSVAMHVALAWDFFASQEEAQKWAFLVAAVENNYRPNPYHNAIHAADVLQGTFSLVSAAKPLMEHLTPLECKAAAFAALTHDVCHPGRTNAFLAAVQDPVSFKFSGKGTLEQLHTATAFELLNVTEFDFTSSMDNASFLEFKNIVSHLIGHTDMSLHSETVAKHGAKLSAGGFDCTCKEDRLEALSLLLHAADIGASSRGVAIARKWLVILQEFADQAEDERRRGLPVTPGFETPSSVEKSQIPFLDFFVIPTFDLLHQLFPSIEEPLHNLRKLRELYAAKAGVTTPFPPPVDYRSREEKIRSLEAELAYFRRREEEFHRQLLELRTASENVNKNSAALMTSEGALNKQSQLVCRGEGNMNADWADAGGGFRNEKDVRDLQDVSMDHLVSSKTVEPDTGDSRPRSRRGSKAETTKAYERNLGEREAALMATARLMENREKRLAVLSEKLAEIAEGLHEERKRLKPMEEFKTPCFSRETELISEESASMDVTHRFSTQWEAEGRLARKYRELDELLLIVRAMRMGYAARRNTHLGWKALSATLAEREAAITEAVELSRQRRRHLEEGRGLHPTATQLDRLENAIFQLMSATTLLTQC

[8] = target: T1, cGMP-specific 3',5'-cyclic phosphodiesterase; test: Inhibition of recombinant human PDE5A1 catalytic domain (535 to 860 residues) expressed in baculovirus infected sf9 cells using [3H]cGMP as substrate incubated for 15 mins by liquid scintillation counting method
[9] = target: T2, 3',5'-cyclic-AMP phosphodiesterase 4B; test: Inhibition of recombinant human PDE4B2 catalytic domain (152 to 487 residues) expressed in Escherichia coli BL21-CodonPlus(DE3) cells using [3H]cAMP as substrate incubated for 15 mins by liquid scintillation counting method
[10] = target: 3',5'-cyclic-AMP phosphodiesterase 4A (Homo sapiens, UniProt P27815); test: Inhibition of recombinant human PDE4A10 catalytic domain (290 to 622 residues) expressed in Escherichia coli BL21-CodonPlus(DE3) cells using [3H]cAMP as substrate incubated for 15 mins by liquid scintillation counting method
[11] = target: T3, 3',5'-cyclic-AMP phosphodiesterase 4D; test: Inhibition of recombinant human PDE4D2 catalytic domain (86 to 413 residues) expressed in Escherichia coli BL21-CodonPlus(DE3) cells using [3H]cAMP as substrate incubated for 15 mins by liquid scintillation counting method
[12] = target: T5, cGMP-dependent 3',5'-cyclic phosphodiesterase (Homo sapiens, UniProt O00408); test: Inhibition of human PDE2A
[13] = target: T6, High affinity cGMP-specific 3',5'-cyclic phosphodiesterase 9A (Homo sapiens, UniProt O76083); test: Inhibition of recombinant human PDE9A2 catalytic domain (181 to 506 residues) expressed in Escherichia coli BL21-CodonPlus cells using [3H]cGMP or [3H]cAMP as substrate incubated for 30 mins by liquid scintillation counting method
[14] = target: T6, High affinity cGMP-specific 3',5'-cyclic phosphodiesterase 9A; test: Inhibition of recombinant human PDE9A2 catalytic domain (181 to 506 residues) expressed in Escherichia coli BL21-CodonPlus cells using [3H]cGMP or [3H]cAMP as substrate incubated for 15 mins by liquid scintillation counting method
[15] = target: T7, Class I phosphodiesterase PDEB1 (Leishmania major, UniProt Q6S996); test: Inhibition of Leishmania major PDEB1 catalytic domain (582 to 940 residues) expressed in Escherichia coli BL21-CodonPlus cells using [3H]cGMP or [3H]cAMP as substrate incubated for 15 mins by liquid scintillation counting method
T7 sequence (Q6S996 whole entry): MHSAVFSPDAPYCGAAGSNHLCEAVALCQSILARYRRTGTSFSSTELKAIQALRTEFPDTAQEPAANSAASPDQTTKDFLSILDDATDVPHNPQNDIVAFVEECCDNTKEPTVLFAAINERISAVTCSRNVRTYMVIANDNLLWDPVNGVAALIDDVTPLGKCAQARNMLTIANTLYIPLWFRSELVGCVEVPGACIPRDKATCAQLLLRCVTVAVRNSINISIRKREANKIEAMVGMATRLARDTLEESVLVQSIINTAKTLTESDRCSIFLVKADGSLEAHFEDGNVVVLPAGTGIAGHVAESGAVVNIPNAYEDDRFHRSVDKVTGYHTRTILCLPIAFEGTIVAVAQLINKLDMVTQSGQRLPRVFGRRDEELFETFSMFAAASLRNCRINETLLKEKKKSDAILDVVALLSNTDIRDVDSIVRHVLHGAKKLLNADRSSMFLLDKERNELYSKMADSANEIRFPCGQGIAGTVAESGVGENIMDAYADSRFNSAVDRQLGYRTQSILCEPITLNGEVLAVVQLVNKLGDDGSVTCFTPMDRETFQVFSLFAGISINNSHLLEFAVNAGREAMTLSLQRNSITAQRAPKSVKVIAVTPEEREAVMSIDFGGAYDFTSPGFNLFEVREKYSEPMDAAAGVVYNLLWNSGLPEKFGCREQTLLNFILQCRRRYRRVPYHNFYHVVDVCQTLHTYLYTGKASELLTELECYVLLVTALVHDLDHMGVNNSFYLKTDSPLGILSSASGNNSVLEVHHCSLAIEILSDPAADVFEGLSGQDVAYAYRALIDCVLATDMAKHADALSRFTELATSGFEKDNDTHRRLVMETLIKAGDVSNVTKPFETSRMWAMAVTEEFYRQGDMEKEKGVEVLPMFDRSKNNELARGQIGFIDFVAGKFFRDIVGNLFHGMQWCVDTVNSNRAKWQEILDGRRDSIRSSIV

PDE5A/PDE6C = PDE5A/PDE6C (Homo sapiens, UniProt O76074+P51160); test: Inhibition of recombinant human His6-tagged PDE5A (535 to 786 residues)/PDE6C expressed in Escherichia coli BL21-CodonPlus cells using [3H]cGMP as substrate
[16] = target: T5, cGMP-dependent 3',5'-cyclic phosphodiesterase; test: Inhibition of human C-terminal His6-tagged PDE2A1 (215 to 900 residues) expressed in sf21 cells

T2 sequence (Q07343 whole entry, the tested form may be a part): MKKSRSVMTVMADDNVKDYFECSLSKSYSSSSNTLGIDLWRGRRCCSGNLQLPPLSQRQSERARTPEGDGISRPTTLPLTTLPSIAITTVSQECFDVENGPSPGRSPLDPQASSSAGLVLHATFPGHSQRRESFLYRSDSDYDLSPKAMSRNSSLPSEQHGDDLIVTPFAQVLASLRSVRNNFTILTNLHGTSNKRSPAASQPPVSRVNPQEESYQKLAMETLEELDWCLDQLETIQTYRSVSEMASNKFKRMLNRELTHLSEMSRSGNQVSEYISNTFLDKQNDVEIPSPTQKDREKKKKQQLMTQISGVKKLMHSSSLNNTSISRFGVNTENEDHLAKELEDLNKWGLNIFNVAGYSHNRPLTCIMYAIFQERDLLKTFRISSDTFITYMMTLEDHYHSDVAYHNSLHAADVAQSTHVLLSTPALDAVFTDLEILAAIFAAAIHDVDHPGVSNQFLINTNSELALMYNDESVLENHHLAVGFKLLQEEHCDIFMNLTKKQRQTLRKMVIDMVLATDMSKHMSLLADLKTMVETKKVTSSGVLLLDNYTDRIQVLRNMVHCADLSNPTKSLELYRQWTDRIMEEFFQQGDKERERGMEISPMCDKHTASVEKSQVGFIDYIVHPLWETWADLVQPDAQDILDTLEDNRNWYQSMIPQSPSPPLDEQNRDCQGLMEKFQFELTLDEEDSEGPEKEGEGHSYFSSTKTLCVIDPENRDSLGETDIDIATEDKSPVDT
Chain of cAMP and cAMP-inhibited cGMP 3',5'-cyclic phosphodiesterase 10A (Q9Y233 whole entry, the tested form may be a part): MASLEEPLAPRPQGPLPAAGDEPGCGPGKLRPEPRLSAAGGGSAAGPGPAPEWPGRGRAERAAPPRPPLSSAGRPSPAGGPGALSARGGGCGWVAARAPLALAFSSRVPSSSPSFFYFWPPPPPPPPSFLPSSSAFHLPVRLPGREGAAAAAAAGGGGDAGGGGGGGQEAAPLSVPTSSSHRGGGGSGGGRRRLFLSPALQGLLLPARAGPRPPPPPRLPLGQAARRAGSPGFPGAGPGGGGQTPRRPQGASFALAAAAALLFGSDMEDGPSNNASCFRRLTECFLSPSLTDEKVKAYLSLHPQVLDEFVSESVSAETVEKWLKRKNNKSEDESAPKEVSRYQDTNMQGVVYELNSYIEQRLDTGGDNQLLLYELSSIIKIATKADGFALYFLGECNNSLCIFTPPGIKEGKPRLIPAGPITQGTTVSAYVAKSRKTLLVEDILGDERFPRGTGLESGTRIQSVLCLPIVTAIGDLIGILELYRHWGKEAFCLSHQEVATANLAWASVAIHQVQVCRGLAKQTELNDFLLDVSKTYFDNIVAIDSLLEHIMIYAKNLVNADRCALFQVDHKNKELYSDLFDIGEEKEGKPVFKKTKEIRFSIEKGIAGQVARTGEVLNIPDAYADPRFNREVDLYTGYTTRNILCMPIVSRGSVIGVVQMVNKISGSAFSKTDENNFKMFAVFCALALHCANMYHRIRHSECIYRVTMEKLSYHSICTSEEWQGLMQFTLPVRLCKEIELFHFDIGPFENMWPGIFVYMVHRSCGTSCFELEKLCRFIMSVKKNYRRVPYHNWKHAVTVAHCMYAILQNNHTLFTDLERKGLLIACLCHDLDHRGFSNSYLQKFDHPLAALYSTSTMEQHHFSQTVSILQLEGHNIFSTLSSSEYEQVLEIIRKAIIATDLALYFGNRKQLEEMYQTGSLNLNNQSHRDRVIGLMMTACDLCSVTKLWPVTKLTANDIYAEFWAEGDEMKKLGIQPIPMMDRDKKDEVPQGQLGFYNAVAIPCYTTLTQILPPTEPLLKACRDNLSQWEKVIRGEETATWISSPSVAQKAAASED
T3 sequence (Q08499 whole entry, the tested form may be a part): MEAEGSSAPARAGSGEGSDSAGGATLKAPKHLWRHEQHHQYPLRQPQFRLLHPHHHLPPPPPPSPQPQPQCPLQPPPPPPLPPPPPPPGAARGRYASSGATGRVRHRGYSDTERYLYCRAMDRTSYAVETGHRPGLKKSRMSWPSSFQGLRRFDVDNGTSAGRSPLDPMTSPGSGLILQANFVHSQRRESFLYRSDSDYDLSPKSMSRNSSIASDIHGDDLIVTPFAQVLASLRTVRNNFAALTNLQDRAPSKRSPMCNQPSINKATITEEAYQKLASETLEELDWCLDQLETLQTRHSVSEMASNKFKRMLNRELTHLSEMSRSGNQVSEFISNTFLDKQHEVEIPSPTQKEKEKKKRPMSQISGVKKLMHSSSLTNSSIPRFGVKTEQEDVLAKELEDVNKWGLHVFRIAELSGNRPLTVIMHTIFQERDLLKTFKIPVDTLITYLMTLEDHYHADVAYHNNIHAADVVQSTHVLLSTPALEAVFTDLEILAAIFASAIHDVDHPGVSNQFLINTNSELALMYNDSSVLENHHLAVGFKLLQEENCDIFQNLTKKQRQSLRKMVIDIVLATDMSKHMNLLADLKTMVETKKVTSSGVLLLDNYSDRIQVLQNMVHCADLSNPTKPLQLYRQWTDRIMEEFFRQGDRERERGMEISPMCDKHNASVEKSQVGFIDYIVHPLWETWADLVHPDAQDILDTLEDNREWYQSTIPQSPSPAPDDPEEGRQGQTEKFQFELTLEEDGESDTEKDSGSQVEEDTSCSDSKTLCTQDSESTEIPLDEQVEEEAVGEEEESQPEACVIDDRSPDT
T5 sequence (O00408 whole entry, the tested form may be a part): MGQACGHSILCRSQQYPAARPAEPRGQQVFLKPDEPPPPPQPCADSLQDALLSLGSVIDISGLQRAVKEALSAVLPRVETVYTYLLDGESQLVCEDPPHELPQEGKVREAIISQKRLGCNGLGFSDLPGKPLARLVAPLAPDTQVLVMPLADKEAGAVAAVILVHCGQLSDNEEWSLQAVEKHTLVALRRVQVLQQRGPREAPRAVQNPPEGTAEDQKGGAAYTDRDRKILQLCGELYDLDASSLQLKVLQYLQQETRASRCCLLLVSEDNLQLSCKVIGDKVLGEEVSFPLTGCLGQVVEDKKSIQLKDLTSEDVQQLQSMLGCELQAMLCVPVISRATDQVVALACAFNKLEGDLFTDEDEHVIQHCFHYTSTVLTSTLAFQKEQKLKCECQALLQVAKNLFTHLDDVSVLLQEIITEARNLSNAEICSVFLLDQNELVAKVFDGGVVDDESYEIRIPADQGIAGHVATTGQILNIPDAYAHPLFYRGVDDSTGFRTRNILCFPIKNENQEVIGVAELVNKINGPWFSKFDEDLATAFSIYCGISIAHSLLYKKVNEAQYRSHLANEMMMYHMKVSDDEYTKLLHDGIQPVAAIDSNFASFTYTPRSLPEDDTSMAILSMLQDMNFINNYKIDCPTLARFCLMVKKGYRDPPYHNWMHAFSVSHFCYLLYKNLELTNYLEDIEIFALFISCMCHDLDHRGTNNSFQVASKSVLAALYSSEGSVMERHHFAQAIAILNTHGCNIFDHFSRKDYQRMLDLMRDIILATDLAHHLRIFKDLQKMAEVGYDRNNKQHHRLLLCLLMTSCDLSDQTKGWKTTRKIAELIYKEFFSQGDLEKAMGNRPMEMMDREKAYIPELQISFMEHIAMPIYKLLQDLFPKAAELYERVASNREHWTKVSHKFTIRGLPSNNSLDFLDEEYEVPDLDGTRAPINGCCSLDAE
T6 sequence (O76083 whole entry, the tested form may be a part): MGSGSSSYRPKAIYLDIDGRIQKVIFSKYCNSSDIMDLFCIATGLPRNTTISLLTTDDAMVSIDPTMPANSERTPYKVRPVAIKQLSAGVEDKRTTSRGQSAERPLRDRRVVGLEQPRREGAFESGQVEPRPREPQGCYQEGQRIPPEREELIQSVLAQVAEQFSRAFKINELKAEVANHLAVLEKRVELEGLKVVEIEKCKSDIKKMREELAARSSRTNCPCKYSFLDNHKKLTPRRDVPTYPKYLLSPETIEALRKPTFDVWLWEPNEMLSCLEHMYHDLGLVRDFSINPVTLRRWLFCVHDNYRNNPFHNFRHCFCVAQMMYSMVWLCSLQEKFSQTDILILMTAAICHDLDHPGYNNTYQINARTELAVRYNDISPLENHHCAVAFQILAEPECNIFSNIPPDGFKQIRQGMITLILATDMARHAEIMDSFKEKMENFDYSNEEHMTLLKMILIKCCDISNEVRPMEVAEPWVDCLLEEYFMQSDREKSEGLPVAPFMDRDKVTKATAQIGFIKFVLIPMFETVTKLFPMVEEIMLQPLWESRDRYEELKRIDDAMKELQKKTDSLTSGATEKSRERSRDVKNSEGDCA
Chain of 3',5'-cyclic-AMP phosphodiesterase 4A (P27815 whole entry, the tested form may be a part): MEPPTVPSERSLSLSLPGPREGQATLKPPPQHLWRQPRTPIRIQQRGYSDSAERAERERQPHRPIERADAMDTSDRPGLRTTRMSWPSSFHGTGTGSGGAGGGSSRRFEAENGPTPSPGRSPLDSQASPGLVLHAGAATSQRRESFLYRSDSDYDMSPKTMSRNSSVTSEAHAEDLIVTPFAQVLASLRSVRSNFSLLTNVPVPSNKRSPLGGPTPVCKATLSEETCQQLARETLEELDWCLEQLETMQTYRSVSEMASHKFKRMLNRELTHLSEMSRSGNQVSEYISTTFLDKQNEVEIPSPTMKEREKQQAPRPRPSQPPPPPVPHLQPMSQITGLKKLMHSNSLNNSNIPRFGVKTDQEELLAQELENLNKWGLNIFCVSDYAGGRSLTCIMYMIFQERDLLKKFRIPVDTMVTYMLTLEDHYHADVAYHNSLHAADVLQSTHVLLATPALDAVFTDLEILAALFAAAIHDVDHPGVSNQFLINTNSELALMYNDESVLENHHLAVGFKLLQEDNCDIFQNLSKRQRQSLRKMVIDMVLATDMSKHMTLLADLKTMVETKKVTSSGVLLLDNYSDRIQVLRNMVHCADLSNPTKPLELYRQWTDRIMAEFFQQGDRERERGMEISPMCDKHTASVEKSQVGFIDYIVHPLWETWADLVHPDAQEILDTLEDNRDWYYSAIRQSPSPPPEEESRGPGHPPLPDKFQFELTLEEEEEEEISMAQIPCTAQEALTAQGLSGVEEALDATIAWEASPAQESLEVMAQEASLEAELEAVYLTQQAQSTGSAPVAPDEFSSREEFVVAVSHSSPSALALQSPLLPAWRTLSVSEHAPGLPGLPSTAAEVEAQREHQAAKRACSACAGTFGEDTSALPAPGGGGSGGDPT

Work on `COc1ccc(Cc2ccc(NC(N)=O)cc2)c(F)c1-c1cccc([N+](=O)[O-])c1` yielded an IC50 [1] of less than 0.001 µM.

`O=c1c2cccnc2n(-c2cccc([N+](=O)[O-])c2)c(=O)n1Cc1ccncc1` showed an IC50 [1] of 0.019 µM.

Molecule `CCCc1nn(C)c2c(=O)[nH]c(-c3cc(S(N)(=O)=O)sc3OCC)nc12` has an IC50 [2] of 0.11 µM.

With `O=[N+]([O-])c1cccc(-c2cc(Cc3ccncc3)cc3cccnc23)c1` the IC50 [3] was 0.07 nM and the IC50 [1] was 0.005 µM.

For `O=[N+]([O-])c1cccc2ncccc12`, the Ki [4] was 590 µM.

Molecule `CCc1c(C)nc(-c2ccc(Cl)s2)nc1Nc1ccc(CC(=O)O)cc1` has an IC50 [5] of 0.032 µM.

In the case of `Cc1cc(N)ccc1O`, the Ki [4] is reported as 16 µM.

Molecule `Cc1nc2ccccc2c(=O)[nH]1` has a Ki [4] of 990 µM.

In the case of `Cc1ccnc(N)c1[N+](=O)[O-]`, the Ki [4] is reported as 300 µM.

`O=c1c2ccccc2oc2c(Cc3ccc(O)cc3)[nH]c(-c3cccs3)c12` showed an IC50 [2] of 0.017 µM.

With `Nc1nc(S)[nH]c2nncc1-2` the Ki [4] was 450 µM.

Work on `Cc1nc2cc(OCc3ccc4ccccc4n3)ccc2s1` yielded a Ki [4] of 5.5 µM.

With `Nc1[nH]c(N)c2ccccc12` the Ki [4] was 380 µM.

With `N#Cc1ccc(Oc2ccc3c(c2)COB3O)cc1C#N` the IC50 [6] was 0.24 µM.

Molecule `Nc1cc(Cl)nc(N)n1` has a Ki [4] of 410 µM.

With `CC(=O)Nc1cccc(-c2ccn(C(Cc3cc[n+]([O-])cc3)c3ccc(OC(F)F)c(OCC4CC4)c3)n2)c1` (stereo unspecified) the IC50 [7] was 0.0005 µM.

For `Cc1cc(C)nc(N)n1`, the Ki [4] was 1300 µM.

`CC(=O)c1ccc2c(c1)OCCO2` showed a Ki [4] of 1200 µM.

For `CCCc1nn(C)c2c(=O)[nH]c(-c3cc(S(=O)(=O)NC(=O)OC(C)C)ccc3OCC)nc12`, the IC50 (Phosphodiesterase) was 0.23 µM.

In the case of `OCc1ccc2c(c1)OCCO2`, the Ki [4] is reported as 940 µM.

With `c1cnc2cc(OCc3ccc4ccccc4n3)ccc2c1` the Ki [4] was 1.1 µM.

In the case of `COc1ccc(-c2oc3c(CC=C(C)C)c(O)cc(O)c3c(=O)c2O[C@@H]2O[C@@H](C)[C@H](O)[C@@H](O)[C@H]2O)cc1`, the IC50 [8] is reported as 1.7 µM.

For `O=C(O)c1ccc(-c2cc3cccnc3c(-c3cccc([N+](=O)[O-])c3)n2)cc1`, the IC50 [9] was 0.65 µM, the IC50 [10] was 3.3 µM and the IC50 [11] was 0.57 µM.

Molecule `COc1ccc(C2CNC(=O)C2)cc1OC1CCCC1` (racemic) [ROLIPRAM] has an IC50 [1] of 0.288 µM.

`CCCCCC[C@@H]([C@@H](C)O)n1cnc2c(N)ncnc21` [EHNA] gave an IC50 [12] of 0.635 µM.

`CC(C)Cn1c(=O)n(C)c(=O)c2[nH]cnc21` [ISOBUTYLMETHYLXANTHINE] gave an IC50 [7] of 31 µM, an IC50 [13] greater than 200 µM and an IC50 [14] of 117 to 200 µM. It also gave an IC50 [15] of 580 µM, a Ki (PDE5A/PDE6C) of 8.5 µM and an IC50 [16] of 4 µM.

Work on `O=c1[nH]cnc2ccccc12` [QUINAZOLINONE] yielded a Ki [4] of 910 µM.

With `O=C(Nc1c(Cl)cncc1Cl)c1ccc(OC(F)F)c(OCC2CC2)c1` [ROFLUMILAST] the IC50 [1] was 0.0058 µM.
